Results published in patent US10450260B2, “NO- and H2S-releasing compounds” (RESEARCH FOUNDATION OF THE CITY UNIVERSITY OF NEW YORK, priority 2011, dated 2019).
Read-outs that look alike come from different tables or passages of the source.

Tests used:
Type in all cases: cell-based
[1] = tested on: BxPC-3 human pancreatic cancer; assay: MTT cell growth inhibition, BxPC3; settings: for IC50: Homo sapiens, BXPC-3, read-out: IC50 for cell growth inhibition, Pancreas BxPC3; for Ratio NSAID/NOSH-NSAID, BxPC3: fold-enhancement in potency over the parent compound
Protocol: (§1) HT-29, SW-480 and HCT-15 human colon adenocarcinoma, MIA PaCa-2 and BxPC-3 human pancreatic cancer, LNCAP human prostate cancer, A549 human lung cancer, MCF-7 (estrogen receptor positive), MDA-MB 231 and SK-BR-3 (estrogen receptor negative) human breast cancer, and Jurkats human leukemia cell lines were obtained from American Type Tissue Collection (Manassas, Va.). All cells lines were grown as monolayers except for the Jurkats which were grown in suspension. The pancreatic and breast cancer cells were grown in Dulbecco's modified Eagle's medium, the prostate, Jurkat, SW-480 and HCT-15 colon cells were grown in RPMI 1640 medium, the lung cells were grown in F-12 and the colon HT-29 cells were grown in McCoy 5A. All media were supplemented with 10% fetal calf serum (Invitrogen, Carlsbad, Calif.) penicillin (50 U/ml), and streptomycin (50 μg/ml) (Invitrogen, Carlsbad, Calif.). Cells were seeded on culture dishes at a density of 25×10^3 cells/cm^2 and incubated at 37° C. in 5% CO2 and 90% relative humidity. Single cell suspensions were obtained by trypsinization (0.05% trypsin/EDTA), and cells were counted using a hemocytometer. Viability was determined by the trypan blue dye exclusion method.
(§2) Cell growth inhibitory effect of NOSH compounds were measured using a colorimetric MTT assay kit (Roche, Indianapolis, Ind.). Cancer cells were plated in 96-well plates at a density of 50,000 cells/well. The cells were incubated for 24 h with different concentrations of NOSH compounds. After the indicated time, 10 μl of MTT dye (3-[4,5-dimethylthiazol-2-yl]-2,5-diphenyl tetrazolium bromide, 5 mg/ml in phosphate buffered saline), was added to each well, and the plates were incubated for 2 hours at 37° C. Then, the media was aspirated, and add 100 μl of the solubilization solution (10% SDS in 0.01 M HCl) was added to each well to solubilize the formant crystals. The absorbance of the plates was measured on an ELISA reader at a wavelength of 570 nm. Each sample was performed in triplicate, and the entire experiment was repeated three times.
(§3) HT-29, SW-480 and HCT-15 human colon adenocarcinoma, MIA PaCa-2 and BxPC-3 human pancreatic cancer, LNCAP human prostate cancer, A549 and H383 human lung cancer, MCF-7, MDA-MB 231 and SK-BR-3 human breast cancer and Jurkat T cell human leukemia cell lines were obtained from American Type Tissue Collection (Manassas, Va.) All cells lines were grown as monolayers except for the Jurkat T cells which were grown as suspension culture. The pancreatic and breast cancer cells were grown in Dulbecco's modified Eagle's medium, the prostate, Jurkat, SW-480 and HCT-15 colon cells were grown in RPMI 1640 medium, the lung cells were grown in F-12 and the colon HT-29 cells were grown in McCoy 5A. All media were supplemented with 10% fetal calf serum (Invitrogen, Carlsbad, Calif.) penicillin (50 U/ml), and streptomycin (50 μg/ml) (Invitrogen, Carlsbad, Calif.). Cells were seeded on culture dishes at a density of 25×10^3 cells/cm^2 and incubated at 37° C. in 5% CO2 and 90% relative humidity. Single cell suspensions were obtained by trypsinization (0.05% trypsin/EDTA), and cells were counted using a hemacytometer. The final DMSO concentration was adjusted in all media to 1%. Viability was determined by the trypan blue dye exclusion method.
(§4) Cell growth inhibitory effect of all NOSH-NSAIDs was measured using a colorimetric MTT assay kit (Roche, Indianapolis, Ind.). Cancer cells were plated in 96-well plates at a density of 30,000-50,000 cells/well depending on cell type. The cells were incubated for 24 hours with different concentrations of NOSH-NSAIDs. After the indicated time, 10 μL of MTT dye (3-[4,5-dimethylthiazol-2-yl]-2,5-diphenyl tetrazolium bromide, 5 mg/mL in phosphate buffered saline), was added to each well, and the plates were incubated for 2 hours at 37° C. Then, the media was aspirated, and 100 μL of the solubilization solution (10% SDS in 0.01 M HCl) was added to each well to solubilize the formant crystals. […]

[2] = tested on: A549 human lung cancer; assay: MTT cell growth inhibition, A549; settings: for IC50: Homo sapiens, A549; for Ratio NSAID/NOSH-NSAID, A549: fold-enhancement in potency over the parent compound
Protocol: as §1, §2, §3, §4

[3] = tested on: HT-29 human colon cancer cells; assay: MTT cell growth inhibition, HT-29; settings: for IC50: Homo sapiens; for Ratio NSAID/NOSH-NSAID, HT-29: fold-enhancement in potency over the parent compound
Protocol: as §1, §2
HT-29 human colon cancer cells were obtained from American Type Tissue Collection (Manassas, Va.) and grown as monolayer in McCoy 5A media that was supplemented with 10% fetal calf serum (Invitrogen, Carlsbad, Ca.), penicillin (50 U/ml), and streptomycin (50 μg/ml) (Invitrogen, Carlsbad, Calif.).
Growth inhibition was measured using a colorimetric MTT assay kit (Roche, Indianapolis, Ind.). Proliferation (PCNA) was assessed using an ELISA kit from Calbiochem, (La Jolla, Calif.). Cell cycle phase distributions and apoptosis of control and treated cells were determined as previously described. All methods are described in Chattopadhyay et al., Biochemical Pharmacology, 2012, 83(6), 715-722.
as §3, with “method. […]” for “method.”

[4] = tested on: MIA PaCa-2 human pancreatic cancer; assay: MTT cell growth inhibition, MIA PaCa2; settings: for IC50: Homo sapiens, MIA PaCa-2; for Ratio NSAID/NOSH-NSAID, MIAPaCa2: fold-enhancement in potency over the parent compound
Protocol: as §1, §2, §3, §4

[5] = tested on: MCF-7 human breast cancer; assay: MTT cell growth inhibition, MCF7; settings: for IC50: Homo sapiens, MCF7; for Ratio NSAID/NOSH-NSAID, MCF7: fold-enhancement in potency over the parent compound
Protocol: as §1, §2, §3, §4

[6] = 24 hours, read-out: IC50 for cell growth inhibition, Lung A540
[7] = HT-29, 24 hours, read-out: IC50 for cell growth inhibition, Colon HT-29
[8] = 24 hours, read-out: IC50 for cell growth inhibition, Pancreas MIA PaCa2
[9] = HT-29, 24 hours (Table 7), read-out: IC50 for cell growth inhibition, Colon HT-29
[10] = 24 hours (Table 7), read-out: IC50 for cell growth inhibition, Pancreas MIAPaCa2
[11] = HT-29, 24 h (Table 5), in combinations the IC50 of ASA with fixed concentrations of SNAP and/or ADT-OH, read-out: IC50 at 24 hours for HT-29 cell growth inhibition
[12] = HT-29 cells, 24 h, read-out: IC50, 24 h
[13] = HT-29 colon cancer cells, 24 hours (Table 3), read-out: IC50 at 24 hours for cell growth inhibition
[14] = 24 hours (Table 7), read-out: IC50 for cell growth inhibition, Lung A549

IC50 ([1]; 24 hours)	IC50 [2, 6]	IC50 [3, 7]	IC50 [4, 8]	IC50 ([5]; 24 hours)	SMILES	IC50 ([1]; 24 hours (Table 7))	IC50 [3, 9]	IC50 [4, 10]	IC50 ([5]; 24 hours (Table 7))	IC50 [2, 14]	further results
0.1 ± 0.009 µM	0.12 ± 0.014 µM	0.08 ± 0.005 µM	0.102 ± 0.018 µM	0.07 ± 0.005 µM	O=C(CCC(=O)Oc1ccccc1C(=O)Oc1ccc(-c2cc(=S)ss2)cc1)OCCCCO[N+](=O)[O-] [NOSH-2, 4-(nitrooxy)butyl (2-((4-(3-thioxo-3H-1,2-dithiol-5-yl)phenoxy)carbonyl)phenyl) succinate]	–	–	–	–	–	–
–	–	–	–	–	COc1ccc2cc([C@H](C)C(=O)O)ccc2c1 [naproxen, reference compound]	2450 µM	2780 µM	3200 µM	2350 µM	–	–
5.5 ± 0.39 µM	6.5 ± 0.224 µM	7.5 ± 0.355 µM	4.8 ± 0.322 µM	5.7 ± 0.323 µM	NC(=S)c1ccc(OC(=O)c2ccccc2OC(=O)CCCO[N+](=O)[O-])cc1 [NOSH-3, 4-carbamothioylphenyl 2-((4-(nitrooxy)butanoyl)-oxy)benzoate]	–	–	–	–	–	–
–	–	–	–	–	CC(=O)Oc1ccccc1C(=O)O [ASA, aspirin, reference compound]	–	–	–	–	–	IC50 [3, 11]: > 1000 µM; IC50 [3, 12]: > 5000 µM; IC50 [3, 13]: > 5000 µM
–	–	–	–	–	CC(C(=O)Oc1ccc(-c2cc(=S)ss2)cc1)c1ccc2cc(OC(=O)CCCO[N+](=O)[O-])ccc2c1 (stereo not drawn) [NOSH-7, 6-(1-oxo-1-(4-(3-thioxo-3H-1,2-dithiol-5-yl)phenoxy)propan-2-yl)naphthalen-2-yl 4-(nitrooxy)butanoate]	0.08 µM	0.08 µM	0.095 µM	0.11 µM	0.1 µM	Ratio NSAID/NOSH-NSAID, BxPC3 [1]: 30,625; Ratio NSAID/NOSH-NSAID, A549 [2]: 26,500; Ratio NSAID/NOSH-NSAID, HT-29 [3]: 34,687; Ratio NSAID/NOSH-NSAID, MIAPaCa2 [4]: 33,684; Ratio NSAID/NOSH-NSAID, MCF7 [5]: 21,363
0.7 ± 0.032 µM	0.3 ± 0.012 µM	0.3 ± 0.035 µM	0.8 ± 0.039 µM	0.28 ± 0.015 µM	O=C(CCCC[C@@H]1CCSS1)Oc1ccccc1C(=O)OCCCCO[N+](=O)[O-] [NOSH-4, (R)-4-(nitrooxy)butyl 2-((5-(1,2-dithiolan-3-yl)pentanoyl)oxy)benzoate]	–	–	–	–	–	–
–	–	–	–	–	CC1=C(CC(=O)Oc2ccc(OC(=O)CCCO[N+](=O)[O-])c(C(=O)Oc3ccc(-c4cc(=S)ss4)cc3)c2)c2cc(F)ccc2/C1=C/c1ccc([S+](C)[O-])cc1 (stereo not drawn) [NOSH-8, (E)-4-(3-thioxo-3H-1,2-dithiol-5-yl)phenyl 5-(2-(5-fluoro-2-methyl-1-(4-(methylsulfinyl)benzylidene)-1H-inden-3-yl)acetoxy)-2-((4-(nitrooxy)butanoyl)oxy)benzoate]	0.11 µM	0.089 µM	0.098 µM	0.11 µM	0.18 µM	Ratio NSAID/NOSH-NSAID, BxPC3 [1]: 8,818; Ratio NSAID/NOSH-NSAID, A549 [2]: 1,177; Ratio NSAID/NOSH-NSAID, HT-29 [3]: 8,988; Ratio NSAID/NOSH-NSAID, MIAPaCa2 [4]: 8,081; Ratio NSAID/NOSH-NSAID, MCF7 [5]: 8,772
–	–	–	–	–	CC1=C(CC(=O)O)c2cc(F)ccc2/C1=C\c1ccc([S+](C)[O-])cc1 (stereo not drawn) [sulindac, reference compound]	970 µM	800 µM	792 µM	965 µM	212 µM	–

SMILES	IC50 ([1]; 24 hours)	IC50 [2, 6]	IC50 [3, 7]	IC50 [4, 8]	IC50 ([5]; 24 hours)	IC50 ([1]; 24 hours (Table 7))	IC50 [3, 9]	IC50 [4, 10]	IC50 ([5]; 24 hours (Table 7))	IC50 [2, 14]	further results
O=C(CCCO[N+](=O)[O-])Oc1ccccc1C(=O)Oc1ccc(-c2cc(=S)ss2)cc1 [NOSH-1, 4-(3-thioxo-3H-1,2-dithiol-5-yl)phenyl 2-((4-(nitrooxy)butanoyl)oxy)benzoate]	0.057 ± 0.004 µM	0.05 ± 0.007 µM	0.048 ± 0.003 µM	0.047 ± 0.005 µM	0.28 ± 0.016 µM	–	–	–	–	–	potency of intact NOSH-1 over the combination ASA plus SNAP and ADT-OH ([3]; HT-29, 24 h): approximately 9000 fold; Potency enhancement (ratio of IC50 values ASA/NOSH-1), 24 h ([3]; HT-29 cells, 24 h): >100,000 fold; IC50 [3, 11]: 0.05 ± 0.005 µM; IC50 [3, 12]: 0.0455 ± 0.0025 µM; IC50 [3, 13]: 0.05 ± 0.003 µM
